# Measurements reported in patent EP1581471B9, “CYCLOPENTENONE DERIVATIVES FOR CANCER THERAPY” (Dabur Research Foundation, priority 2002, dated 2004).
# Key:
# Caspase-3 = Caspase-3 induction in KB cells (colorimetric substrate DEVD-pNA); format: cell-based, Human; details: 5ug/ml
# Method: Human squamous cell carcinoma (KB) were plated in a 25 cm^2 flask. When cultures achieved confluence, the cyclopentenone derivative of structure 20 was added to the cells. The final concentration of derivative of the structure 20 in the flask was 5ug/ml. The untreated wells served as controls. The cells were incubated with the drug for 2 different time points of 6 and 16 hours at 37°C. The cells were collected by centrifugation at 2000 r.p.m. for 10 minutes. The supernatant was gently removed and discarded while Lysis Buffer was added to the cell pellet (25ul of lysis buffer per […]). The cell lysate was incubated on ice for 10 minutes and centrifuged at 10,000-x g for 1 minute. The supernatant was transferred to a new tube and kept on ice. 50ul of the cell lysate was added in a 96 well plate. To this was added 2x Reaction Buffer. Prior to using reaction buffer, 10ul of fresh DTT stock per 1 ml of 2x Reaction Buffer was added. To each well 5ul of Caspase-3 colorimetric substrate (DEVD-pNA) was added. The plate was incubated for 1-2 hours at […]. and read at 405nm.
# The level of caspase enzymatic activity in the cell lysate is directly proportional to the absorbance at 405nm. […]
# DU145 = assay: three day MTT cytotoxicity assay; format: cell-based, human; details: DU145 (prostate), 72 hours
# Method: (§1) A number of the cyclopentenone derivatives were tested for cytotoxicity against 9 human tumor cell lines. Briefly, a three day MTT cytotoxicity assay was performed, which is based on the principle of uptake of MTT (3-(4,5-dimethylthiazol-2-yl)-2,5-diphenyl tetrazolium bromide), a tetrazolium salt, by the metabolically active cells where it is metabolized by active mitochondria into a blue colored formazan product that is read spectrophotometrically. MTT was dissolved in phosphate buffered saline with a pH of 7.4 to obtain an MTT concentration of 5mg/ml; the resulting mixture was filtered through a 0.22 micron filter to sterilize and remove a small amount of insoluble residue. For each type of tumor cell, 10000 to 15000 cells were seeded in a 96-well culture plate and incubated with the individual cyclopentenone derivatives in a CO2 incubator for a total of 72 hours. Control cells not treated with the cyclopentenone derivatives were similarly incubated. The assay was terminated by adding 100 ug (20 ul) of MTT to each well, then incubating for additional one hour, and finally adding 50 ul of 10% SDS-0.01N HCl to each well to lyse the cells and dissolve formazan. After incubating for one hour, the plate was read spectrophotometrically at 540 nm and the percentage of cytotoxicity calculated using the following formula: Cytotoxicity percentage = 100 × [1-(X/R1)], [formula] where X = (absorbance of treated sample at 540 nm) - (absorbance of blank at 540 nm) R1 = absorbance of control sample at 540 nm.
# (§2) The ED50 Values of the cytotoxicity defined as the concentration at which 50 % of the cells are killed in vitro was calculated for each cell line treated with each of the cyclopentenone derivatives.
# (§3) The cell lines are PTC (all colon), MOLT-4 (leukemia), SW620 […], DU145 (prostate), KB (oral squamous cell), L132 (lung), MIAPaCa2 (Pancreas), Hep2, (larynx), PA-1 (ovary), HuTu80 (duodenum), ECV 304 (endothelial), and 293 (kidney).
# KB = assay: three day MTT cytotoxicity assay; format: cell-based, human; details: KB (oral squamous cell), 72 hours
# Method: as §1, §2, §3
# MIAPaCa2 = assay: three day MTT cytotoxicity assay; format: cell-based, human; details: MIAPaCa2 (Pancreas), 72 hours
# Method: as §1, §2, §3
# PTC = assay: three day MTT cytotoxicity assay; format: cell-based, human; details: PTC (colon), 72 hours
# Method: as §1, §2, §3
# MOLT-4 = assay: three day MTT cytotoxicity assay; format: cell-based, human; details: MOLT-4 (leukemia), 72 hours
# Method: as §1, §2, §3
# ECV 304 = assay: three day MTT cytotoxicity assay; format: cell-based, human; details: ECV 304 (endothelial), 72 hours
# Method: as §1, §2, §3
# SW620 = assay: three day MTT cytotoxicity assay; format: cell-based, human; details: 72 hours
# Method: as §1, §2, §3
# Hep2 = assay: three day MTT cytotoxicity assay; format: cell-based, human; details: Hep2 (larynx), 72 hours
# Method: as §1, §2, §3
# PA-1 = assay: three day MTT cytotoxicity assay; format: cell-based, human; details: PA-1 (ovary), 72 hours
# Method: as §1, §2, §3
# L132 = assay: three day MTT cytotoxicity assay; format: cell-based, human; details: L132 (lung), 72 hours
# Method: as §1, §2, §3
# VEGF = VEGF levels in ECV304 endothelial cells (ELISA); format: cell-based, Human; details: 5ug/ml, 4 hours
# Method: Human endothelial cells (ECV304) were plated at the density of 8-10 x10^5 cells per 2 ml in a six well plate. After an overnight incubation of cells at 37°C, cyclopentenone derivatives at a concentration of 5ug/ml was added to the wells. The untreated wells served as controls. The plates were incubated for 4 hours at 37°C. The medium was collected from all the wells (control and treated) and spun down at 2000 r.p.m to remove the cellular material. The supernatant was collected and used for ELISA (Quantikine human VEGF, R&D Systems). The assay employs the quantitative sandwich enzyme immunoassay technique. A monoclonal antibody specific for VEGF has been pre-coated onto a microplate. Standards and samples were pipetted into the wells and VEGF present was bound by the immobilized antibody. After washing away the unbound substances, an enzyme-linked polyclonal antibody specific for VEGF was added to the wells. Following a wash to remove any unbound antibody-enzyme reagent, a substrate solution was added to the wells and color developed in proportion to the amount of VEGF bound in the initial step. The optical density of each well was determined within 30 minutes using a microplate reader set to 450nm and reference wavelength at 540nm. The VEGF levels were inhibited by the addition of cyclopentenone derivatives in vitro.
# tubulin = tubulin polymerization in vitro (absorbance at 340 nm); format: biochemical; details: tubulin 1mg/ml, 37°C, pH 6.9; read-out: IC50 values (uM) for inhibition of Tubulin Polymerization
# Method: The cyclopentenone derivatives were checked for their effects on tubulin polymerization in vitro. Briefly, the tubulin assembly reaction was performed at 37°C in buffer containing 80 mM PIPES, 1mM EGTA, 1.0 mM GTP and 1mM MgCl2 (pH 6.9) at a tubulin concentration of 1mg/ml in the presence or absence of the cyclopentenone derivatives. The final concentration of the cyclopentenone derivatives in the reaction mixture varied from 1-5uM. The derivatives were dissolved in 0.1% DMSO. The control experiments were carried out with 0.1% DMSO. The tubulin polymerization was followed by measurement of the absorbance of the solution at 340 nm every 30 seconds. […] Thus the cyclopentenone derivatives mediated their observed anticancer activities by tubulin depolymerization.
# 293 = assay: three day MTT cytotoxicity assay; format: cell-based, human; details: 293 (kidney), 72 hours
# Method: as §1, §2, §3
# HuTu80 = assay: three day MTT cytotoxicity assay; format: cell-based, human; details: HuTu80 (duodenum), 72 hours
# Method: as §1, §2, §3
smiles,measurement,setting,value
COc1ccc(C2=C(c3cc(OC)c(OC)c(OC)c3)C(=O)C(O)C2)cc1 (stereo not shown) [Compound 48],Percent Induction of Caspase-3 6 hours,Caspase-3,18.4 ± 1.1%
same,Percent Induction of Caspase-3 16 hours,Caspase-3,22.7 ± 1.5%
same,ED50 (ug/ml) DU145,DU145,>100 µg/mL
same,ED50 (ug/ml) KB,KB,8 ± 2.1 µg/mL
same,ED50 (ug/ml) MiaPaca,MIAPaCa2,79 ± 9.5 µg/mL
same,ED50 (ug/ml) PTC,PTC,6.0 ± 1.5 µg/mL
same,ED50 (ug/ml) MOLT4,MOLT-4,<1.0 µg/mL
same,ED50 (ug/ml) ECV 304,ECV 304,>100 µg/mL
same,ED50 (ug/ml) SW620,SW620; SW620 (ovary),<1.0 µg/mL
same,ED50 (ug/ml) Hep2,Hep2,<1.0 µg/mL
same,ED50 (ug/ml) PA1,PA-1,<1.0 µg/mL
same,ED50 (ug/ml) L132,L132,9.0 ± 3.3 µg/mL
same,Percent Reduction in VEGF,VEGF,23.7 ± 2.2%
same,IC50,tubulin,2.1 ± 0.1 µM
"COc1ccc(C2=C(c3cc(OC)c(OC)c(OC)c3)C(=O)C(O[Si](C)(C)C(C)(C)C)C2)cc1 (stereo not shown) [Compound 52, O-tert-Butyldimethylsilyloxy-3-(4-methoxyphenyl)-2-(3,4,5-trimethoxyphenyl)-cyclopent-2-en-1-one]",ED50 (ug/ml) DU145,DU145,28 ± 4.0 µg/mL
same,ED50 (ug/ml) KB,KB,7.0 ± 3.0 µg/mL
same,ED50 (ug/ml) MiaPaca,MIAPaCa2,<1.0 µg/mL
same,ED50 (ug/ml) PTC,PTC,16 ± 3.6 µg/mL
same,ED50 (ug/ml) MOLT4,MOLT-4,3.0 ± 1.5 µg/mL
same,ED50 (ug/ml) ECV 304,ECV 304,16 ± 4.0 µg/mL
same,ED50 (ug/ml) SW620,SW620; SW620 (ovary),5.0 ± 1.0 µg/mL
same,ED50 (ug/ml) Hep2,Hep2,16 ± 3.0 µg/mL
same,ED50 (ug/ml) PA1,PA-1,7.0 ± 3.5 µg/mL
same,ED50 (ug/ml) L132,L132,9.0 ± 2.5 µg/mL
"COc1cc(C2=C(c3ccc(SC)cc3)CC(O[Si](C)(C)C(C)(C)C)C2=O)cc(OC)c1OC (stereo not shown) [Compound 55, 5-tert-Butyldimethylsilyloxy-3-(4-thiomethylphenyl)-2-(3,4,5 trimethoxyphenyl)-cyclopent-2-en-1-one]",ED50 (ug/ml) DU145,DU145,>100 µg/mL
same,ED50 (ug/ml) KB,KB,10 ± 1.5 µg/mL
same,ED50 (ug/ml) MiaPaca,MIAPaCa2,<1.0 µg/mL
same,ED50 (ug/ml) PTC,PTC,14 ± 3.5 µg/mL
same,ED50 (ug/ml) MOLT4,MOLT-4,<1.0 µg/mL
same,ED50 (ug/ml) ECV 304,ECV 304,>100 µg/mL
same,ED50 (ug/ml) SW620,SW620; SW620 (ovary),<1.0 µg/mL
same,ED50 (ug/ml) Hep2,Hep2,>100 µg/mL
same,ED50 (ug/ml) PA1,PA-1,<1.0 µg/mL
same,ED50 (ug/ml) L132,L132,<1.0 µg/mL
"COc1ccc(C2=C(c3cc(OC)c(OC)c(OC)c3)C(=O)C(O[Si](C)(C)C(C)(C)C)C2)cc1OC(C)C (stereo not shown) [Compound 56, 5-tert-Butyldimethylsilyloxy-3-(4-methoxy-3-i-propoxyphenyl)-2-(3,4,5-trimethoxyphenyl)-cyclopent-2-en-1-one]",ED50 (ug/ml) DU145,DU145,6.3 ± 2.1 µg/mL
same,ED50 (ug/ml) KB,KB,7.5 ± 3.5 µg/mL
same,ED50 (ug/ml) MiaPaca,MIAPaCa2,>100 µg/mL
same,ED50 (ug/ml) PTC,PTC,>100 µg/mL
same,ED50 (ug/ml) MOLT4,MOLT-4,22.5 ± 4.0 µg/mL
same,ED50 (ug/ml) ECV 304,ECV 304,>100 µg/mL
same,ED50 (ug/ml) SW620,SW620; SW620 (colon),9 ± 1.5 µg/mL
same,ED50 (ug/ml) 293,293,>100 µg/mL
same,ED50 (ug/ml) HuTu80,HuTu80,6 ± 0.5 µg/mL
same,ED50 (ug/ml) Hep2,Hep2,7.1 ± 1.5 µg/mL
same,ED50 (ug/ml) PA1,PA-1,7.1 ± 1.5 µg/mL
same,ED50 (ug/ml) L132,L132,7 µg/mL
"COc1ccc(C2=C(c3cc(OC)c(OC)c(OC)c3)C(=O)C(O)C2)cc1F (stereo not shown) [Compound 64, 5-Hydroxy-3-(3-fluoro-4-methoxyphenyl)-2-(3,4,5-trimethoxyphenyl)-cyclopent-2-en-1-one]",ED50 (ug/ml) DU145,DU145,27 ± 3.5 µg/mL
same,ED50 (ug/ml) KB,KB,4.5 ± 1.5 µg/mL
same,ED50 (ug/ml) MiaPaca,MIAPaCa2,64 ± 3.5 µg/mL
same,ED50 (ug/ml) PTC,PTC,20 ± 2.5 µg/mL
same,ED50 (ug/ml) ECV 304,ECV 304,19.5 ± 4.5 µg/mL
same,ED50 (ug/ml) SW620,SW620; SW620 (colon),<1 µg/mL
same,ED50 (ug/ml) 293,293,>100 µg/mL
same,ED50 (ug/ml) HuTu80,HuTu80,<1 µg/mL
same,ED50 (ug/ml) Hep2,Hep2,<1 µg/mL
same,ED50 (ug/ml) L132,L132,<1 µg/mL
"COc1ccc(C2=C(c3cc(OC)c(OC)c(OC)c3)C(=O)C(O)C2)cc1Cl (stereo not shown) [Compound 67, 5-Hydroxy-3-(3-chloro-4-methoxyphenyl)-2-(3,4,5-trimethoxyphenyl)-cyclopent-2-en-1-one]",ED50 (ug/ml) DU145,DU145,40 ± 8.5 µg/mL
same,ED50 (ug/ml) KB,KB,2.5 ± 0.1 µg/mL
same,ED50 (ug/ml) MiaPaca,MIAPaCa2,>100 µg/mL
same,ED50 (ug/ml) PTC,PTC,30 ± 4.0 µg/mL
same,ED50 (ug/ml) ECV 304,ECV 304,20 ± 3.5 µg/mL
same,ED50 (ug/ml) SW620,SW620; SW620 (ovary),<1 µg/mL
same,ED50 (ug/ml) 293,293,>100 µg/mL
same,ED50 (ug/ml) HuTu80,HuTu80,29 ± 2.5 µg/mL
same,ED50 (ug/ml) Hep2,Hep2,<1 µg/mL
same,ED50 (ug/ml) L132,L132,<1 µg/mL
COc1ccc(C2=C(c3cc(OC)c(OC)c(OC)c3)C(=O)C(O)C2)cc1O (stereo not shown) [Compound 74],Percent Induction of Caspase-3 6 hours,Caspase-3,21.8 ± 2.8%
same,Percent Induction of Caspase-3 16 hours,Caspase-3,28.4 ± 2.1%
same,Percent Reduction in VEGF,VEGF,16.9 ± 0.5%
same,IC50,tubulin,1.8 ± 0.5 µM
